Test results published in patent US10385061B2, “Medicarpin, its derivatives, manufacturing method thereof” (PhytoHealth Corporation, priority 2016, dated 2019).
Read-outs that look alike come from different tables or passages of the source.

Assays:
[1] = tested on: erythroid progenitor cells; assay: Hemoglobin colorimetric assay of bone marrow cells (erythroid progenitor differentiation); assay type: cell-based, mouse; conditions: low concentration (0.1 to 10 μg/mL), 96 hours, A610
Protocol: C57BL/6J male mice (6 weeks old) were used in this Example to collect bone marrow cells. The hind legs were of mice were obtained to remove excess flesh from the leg bone and cut off the ends of the bones. The bones were flushed with α-MEM medium using 23-gauge needle to elute bone marrow cells, and then filtrated by No. 53 nylon mesh filter to obtain the bone marrow cells solution.
96-well plates (U-bottom shape) were centrifuged at 1200 rpm (Kubota 6800) at 25° C. for 5 minutes. After centrifugation, the supernatant was removed and the bone marrow cells were mixed equally with 50 μL lysis buffer (0.01% NP-40) for 10 minutes. Then, 150 μL of 500 μM DAF (2,7-Diaminofluorene, Sigma-Aldrich) solution and 6 μL of 30% H2O2 were added and treated with the bone marrow cells for 5 minutes, and absorbance at 610 nm (A610) was determined. Student's t-test were used to compare data.

doxorubicin-induced mice = assay: Treadmill endurance assessment under normoxic or hypoxic conditions; assay type: in vivo; conditions: 3 weeks administration, normoxic and hypoxic (8% O2) conditions, dose-dependent
Protocol: Before being divided into treatment groups, 8 to 10 week-old C57B1/6J male mice were trained on a treadmill for a maximum of 10 min for each of three consecutive training sessions per day for 3 days. […] On the testing day, each mouse was subjected to three trials on the treadmill at under a normoxic or hypoxic (8% O2) atmosphere. The endurance performance was measured over time until the mice suffered from electric shock over 35 times/min (electric shock system is on the end of the treadmill). The maximum trial length was 60 min and there was a 30-min rest period between each trial. (Table 2)

[2] = tested on: dox-induced cardiomyopathic mice; conditions: for EF (Ejection fraction) / FS (Fractional shortening) / IVS; d / IVS; s / LVID; d / LVID; s / LVPW; d / LVPW; s: week 3, mean±SEM
Protocol: C57BL/6J male mice (6 to 8 weeks old) were injected intraperitoneally with triple dose of 5, 5, or 8 mg/kg doxorubicin-HCl (Sigma-Aldrich), respectively. In control group, the mice (n=6) were injected intraperitoneally with saline. 1 week after injection, the degree of heart failure was determined by the increase of S-T segment in electrocardiogram, and then the mice were randomly reclassified into the control group (Dox/Ctrl, n=9) and experimental group (Dox+Med) (FIG. 9). In the experimental group, the mice were fed a diet containing 10, 30, or 90 mg/kg/day medicarpin, respectively. Each experiment group consisted of 7 mice. After feedings, the mice were subjected to the rotarod endurance test, echocardiography and electrocardiogram.
The mice from all treatment groups were anaesthetized with isoflurane (0.75-1.5% inhalation); and echocardiographic measurements were taken in M-mode in triplicate for each mouse using an ATL HDI 5000 ultrasound system (Philips Medical Systems, ATL Ultrasound, Bothell, Wash., USA).

[3] = tested on: cisplatin-induced nephropathic mice; assay: Cisplatin-induced nephropathic mice model; assay type: in vivo
Protocol: C57BL/6J male mice (8 to 10 weeks old) were injected i.p. (Intraperitoneal) with three doses of cisplatin (CDDP) (Sigma-Aldrich), following the scheme of 7, 6 and 7 mg/kg body weight, at 1, 5, 10 day, and the normal group (n=6) was injected with saline. On day 12, serum samples were collected and assayed for blood urea nitrogen content (BUN). Mice with BUN values greater than 100 mg/100 mL were chosen for the experiment. […] The mice were (BUN=80-300 mg/dL) subsequently divided randomly into four cohorts comprising the control and three medicarpin-treated groups, medicarpin 10, 30, 90 mg/kg/day (CDDP+Med 10, CDDP+Med 30, CDDP+Med 90) (n=6 for each group) for an additional 2 weeks. Blood samples from all the mice were collected on day 12. The red blood cell (RBC) numbers were determined from the complete blood cell count using a Sysmex Kx-21 haematology analyser (Sysmex America Inc., Mundelein, Ill., USA), and the serum BUN levels were determined through the urease GLDH method using a commercial kit (DiaSys Diagnostic System GmbH, Frankfurt, Germany). The administration and blood collection schedules were carried out according to the FIG. 4. […] However, the number of RBC in control group without medicarpin treatment was still low. […] The number of WBCs was recovered in the mice after 2 week of medicarpin treatment. […] Similarly, the number of platelet (PLT) also was decreased by cisplatin. […] (FIG. 5D).
One month after treatment of medicarpin, the expression of EPO was increased in liver (FIG. 7A) and kidney (FIG. 7B) of mice.

(+)-Medicarpin
differentiation of erythroid progenitor cells [1]: enhanced
endurance performance to exhaustion (doxorubicin-induced mice): enhanced
prolonged S-T interval ([2]; 90 mg/kg/day, one week after treatment, electrocardiogram): improved
ejection fractions and fractional shortening ([2]; 30 and 90 mg/kg, vs doxorubicin alone): significantly greater
EF (Ejection fraction) ([2]; Dox + Med10 (10 mg/kg/day)): 58.44 ± 2.55%
FS (Fractional shortening) ([2]; Dox + Med10 (10 mg/kg/day)): 30.32 ± 1.56%
IVS; d ([2]; Dox + Med10 (10 mg/kg/day)): 0.85 ± 0.03 mm
IVS; s ([2]; Dox + Med10 (10 mg/kg/day)): 1.20 ± 0.03 mm
LVID; d ([2]; Dox + Med10 (10 mg/kg/day)): 3.70 ± 0.34
LVID; s ([2]; Dox + Med10 (10 mg/kg/day)): 2.58 ± 0.27
LVPW; d ([2]; Dox + Med10 (10 mg/kg/day)): 0.69 ± 0.10
LVPW; s ([2]; Dox + Med10 (10 mg/kg/day)): 1.00 ± 0.07
EF (Ejection fraction) ([2]; Dox + Med30 (30 mg/kg/day)): 75.07 ± 2.29%
FS (Fractional shortening) ([2]; Dox + Med30 (30 mg/kg/day)): 43.04 ± 2.03 %
IVS; d ([2]; Dox + Med30 (30 mg/kg/day)): 0.81 ± 0.04 mm
IVS; s ([2]; Dox + Med30 (30 mg/kg/day)): 1.19 ± 0.02 mm
LVID; d ([2]; Dox + Med30 (30 mg/kg/day)): 3.33 ± 0.07
LVID; s ([2]; Dox + Med30 (30 mg/kg/day)): 1.89 ± 0.06
LVPW; d ([2]; Dox + Med30 (30 mg/kg/day)): 0.74 ± 0.04
LVPW; s ([2]; Dox + Med30 (30 mg/kg/day)): 1.26 ± 0.07
EF (Ejection fraction) ([2]; Dox + Med90 (90 mg/kg/day)): 72.92 ± 2.72%
FS (Fractional shortening) ([2]; Dox + Med90 (90 mg/kg/day)): 41.19 ± 2.07 %
IVS; d ([2]; Dox + Med90 (90 mg/kg/day)): 0.86 ± 0.05 mm
IVS; s ([2]; Dox + Med90 (90 mg/kg/day)): 1.29 ± 0.09 mm
LVID; d ([2]; Dox + Med90 (90 mg/kg/day)): 3.30 ± 0.11
LVID; s ([2]; Dox + Med90 (90 mg/kg/day)): 1.94 ± 0.12
LVPW; d ([2]; Dox + Med90 (90 mg/kg/day)): 0.77 ± 0.06
LVPW; s ([2]; Dox + Med90 (90 mg/kg/day)): 1.15 ± 0.08
expression of EPO in kidney and heart ([2]; doxorubicin-induced mice): recovered and increased
cardiomyocytes atrophy or hypertrophy, cytoplasmic vacuolization, myofibrillar loss, myocardial fibrosis (histology) ([2]; middle-high dosed treatment): significantly ameliorated
left ventricular posterior wall thickness (LVPWs) ([2]; middle-high doses): increased
influence to renal function ([2]; mouse, in vivo): no influence
heart rate (beats per second) ([2]; three weeks after treatment): recovered to normal
BUN levels ([3]; 30 and 90 mg/kg treatment groups): significantly recovered
recovery of anaemia (RBC number) ([3]; 30 and 90 mg/kg, day 33): almost complete recovery
white blood cell (WBC) number ([3]; 30 and 90 mg/kg, week 3 to 4): significant recovery
renal function ([3]; 30 or 90 mg/kg): accelerated the recovery
amount of hemoglobin and number of functional RBC ([3]; high-middle dose): increased
renal function ([3]; low-dose 10 mg/kg): could not improve
HGF expression in liver ([3]; one month after treatment): increase
expression of EPO in liver and kidney ([3]; one month after treatment): increased
number of platelet (PLT) ([3]; vs CDDP/Ctrl group after its recovery from cisplatin): no significant difference
